In PubChem BioAssay AID256 (DTP/NCI, 2004):
Where “and” joins values, the source holds several entries; their conditions need not be identical. Equal entries are not always repeated. Toxic doses and inconclusive results are not listed. Rule for the calls: active = survival T/C of 150% or more; inactive = T/C below 125% in these data.

Tested on: CD2F1 mice, L1210 leukemia ip, survival T/C
Test: NCI In Vivo Anticancer Drug Screen. Data for tumor model L1210 Leukemia (intraperitoneal) in CD2F1 (CDF1) mice
Details: higher = longer survival
In short: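 Each value reflects a quotient of treated over vehicle control outcomes in mice with a transplanted tumor.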

[1] = endpoint: mean survival time, dose: 100.0 mg/kg/injection, schedule: Q04DX002 (ip), vehicle: saline with Tween-80
[2] = endpoint: mean survival time, dose: 200.0 mg/kg/injection, schedule: Q04DX002 (ip), vehicle: saline with Tween-80
[3] = endpoint: mean survival time, dose: 400.0 mg/kg/injection, schedule: Q04DX002 (ip), vehicle: saline with Tween-80
[4] = endpoint: mean survival time, dose: 100.0 mg/kg/injection, schedule: Q01DX009 (ip), vehicle: saline with Tween-80
[5] = endpoint: mean survival time, dose: 200.0 mg/kg/injection, schedule: Q01DX009 (ip), vehicle: saline with Tween-80
[6] = endpoint: mean survival time, dose: 100.0 mg/kg/injection, schedule: Q01DX001 (ip), vehicle: saline with Tween-80
[7] = endpoint: mean survival time, dose: 200.0 mg/kg/injection, schedule: Q01DX001 (ip), vehicle: saline with Tween-80
[8] = endpoint: mean survival time, dose: 400.0 mg/kg/injection, schedule: Q01DX001 (ip), vehicle: saline with Tween-80
[9] = endpoint: mean survival time, dose: 100.0 mg/kg/injection, schedule: Q04DX003 (ip), vehicle: saline with Tween-80
[10] = endpoint: mean survival time, dose: 200.0 mg/kg/injection, schedule: Q04DX003 (ip), vehicle: saline with Tween-80
[11] = endpoint: mean survival time, dose: 400.0 mg/kg/injection, schedule: Q01DX009 (ip), vehicle: saline with Tween-80
[12] = endpoint: mean survival time, dose: 400.0 mg/kg/injection, schedule: Q04DX003 (ip), vehicle: saline with Tween-80
[13] = endpoint: mean survival time, dose: 75.0 mg/kg/injection, schedule: Q01DX001 (ip), vehicle: saline
[14] = endpoint: mean survival time, dose: 150.0 mg/kg/injection, schedule: Q01DX001 (ip), vehicle: saline
[15] = endpoint: mean survival time, dose: 300.0 mg/kg/injection, schedule: Q01DX001 (ip), vehicle: saline
[16] = endpoint: mean survival time, dose: 200.0 mg/kg/injection, schedule: Q04DX003 (ip), vehicle: saline

Measured: T/C

CNNCCO
inactive: endpoint: mean survival time, dose: 50.0 mg/kg/injection, schedule: Q01DX001 (ip), vehicle: saline 104 % of control | endpoint: mean survival time, dose: 100.0 mg/kg/injection, schedule: Q01DX001 (ip), vehicle: saline 101 % of control | endpoint: mean survival time, dose: 200.0 mg/kg/injection, schedule: Q01DX001 (ip), vehicle: saline 101 % of control

Oc1c(Cl)cc(Cl)cc1C=NCCSc1ccc(Cl)cc1
inactive: endpoint: median survival time, dose: 25.0 mg/kg/injection, schedule: Q01DX009 (ip), vehicle: Klucel (hydroxypropylcellulose) (HPC) 112 % of control | endpoint: median survival time, dose: 50.0 mg/kg/injection, schedule: Q01DX009 (ip), vehicle: Klucel (hydroxypropylcellulose) (HPC) 101 % of control | endpoint: median survival time, dose: 100.0 mg/kg/injection, schedule: Q01DX009 (ip), vehicle: Klucel (hydroxypropylcellulose) (HPC) 97 % of control | endpoint: median survival time, dose: 200.0 mg/kg/injection, schedule: Q01DX009 (ip), vehicle: Klucel (hydroxypropylcellulose) (HPC) 100 % of control

C=CC=O
inactive: endpoint: mean survival time, dose: 1.87 mg/kg/injection, schedule: Q01DX009 (ip), vehicle: saline 92 % of control

O=C(Nc1ccccc1)OCCc1c2ccccc2nc2ccccc12
inactive: [1] 94 % of control | [2] 94 % of control | [3] 90 % of control and 97 % of control

O=C1OC2(c3ccccc31)c1ccccc1-c1ccccc12
inactive: endpoint: mean survival time, dose: 50.0 mg/kg/injection, schedule: Q01DX009 (ip), vehicle: saline with Tween-80 97 % of control | [4] 100 % of control | [5] 100 % of control

O=C(NCCCl)NC1C(O)C(O)C(O)C(O)C1O (stereo unspecified)
inactive: [6] 104 % of control | [7] 98 % of control | [8] 98 % of control

BrCc1c2ccccc2c(CBr)c2c1ccc1ccccc12
inactive: endpoint: mean survival time, dose: 25.0 mg/kg/injection, schedule: Q04DX002 (ip), vehicle: carboxymethylcellulose (CMC) 105 % of control | endpoint: mean survival time, dose: 50.0 mg/kg/injection, schedule: Q04DX002 (ip), vehicle: carboxymethylcellulose (CMC) 117 % of control | endpoint: mean survival time, dose: 100.0 mg/kg/injection, schedule: Q04DX002 (ip), vehicle: Klucel (hydroxypropylcellulose) (HPC) 97 % of control | endpoint: mean survival time, dose: 100.0 mg/kg/injection, schedule: Q04DX002 (ip), vehicle: carboxymethylcellulose (CMC) 113 % of control | endpoint: mean survival time, dose: 200.0 mg/kg/injection, schedule: Q04DX002 (ip), vehicle: Klucel (hydroxypropylcellulose) (HPC) 117 % of control

O=C1c2cccc(Oc3ccccc3)c2C(=O)c2cccc(Oc3ccccc3)c21
inactive: [4] 94 % of control | [9] 96 % of control | [5] 89 % of control | [10] 97 % of control | [11] 98 % of control | [12] 94 % of control

NC1=NC(=S)CS1
inactive: [13] 95 % of control | [14] 95 % of control | [15] 87 % of control

CN(/N=C/c1ccccc1)C(=N)N
inactive: endpoint: mean survival time, dose: 15.62 mg/kg/injection, schedule: Q04DX003 (ip), vehicle: saline 101 % of control | endpoint: mean survival time, dose: 31.25 mg/kg/injection, schedule: Q04DX003 (ip), vehicle: saline 107 % of control | endpoint: mean survival time, dose: 62.5 mg/kg/injection, schedule: Q04DX003 (ip), vehicle: saline 103 % of control

COc1ccccc1-n1c(O)c(N=Nc2ccccc2)c(=O)n(-c2ccccc2)c1=S
inactive: endpoint: mean survival time, dose: 100.0 mg/kg/injection, schedule: Q04DX003 (ip), vehicle: acetone 90 % of control

[N-]=[N+]=CC(=O)NCC(=O)NCCO
inactive: endpoint: mean survival time, dose: 50.0 mg/kg/injection, schedule: Q01DX001 (ip), vehicle: other 101 % of control | endpoint: mean survival time, dose: 100.0 mg/kg/injection, schedule: Q01DX001 (ip), vehicle: other 103 % of control | endpoint: mean survival time, dose: 200.0 mg/kg/injection, schedule: Q01DX001 (ip), vehicle: other 106 % of control | endpoint: mean survival time, dose: 200.0 mg/kg/injection, schedule: Q01DX009 (ip), vehicle: other 103 % of control | endpoint: mean survival time, dose: 400.0 mg/kg/injection, schedule: Q01DX001 (ip), vehicle: other 109 % of control | endpoint: mean survival time, dose: 600.0 mg/kg/injection, schedule: Q01DX009 (ip), vehicle: other 121 % of control | endpoint: mean survival time, dose: 1000.0 mg/kg/injection, schedule: Q01DX009 (ip), vehicle: other 114 % of control

O=[N+]([O-])c1ccc(N/N=C/c2ccc(CO)cc2)c([N+](=O)[O-])c1
inactive: [16] 91 % of control | endpoint: mean survival time, dose: 400.0 mg/kg/injection, schedule: Q04DX003 (ip), vehicle: saline 92 % of control

CN1C=NN(C)C=N1
inactive: [13] 100 % of control | [14] 97 % of control | [15] 108 % of control

c1ccc2c(c1)[As]=c1ccccc1=[As]2 (stereo unspecified)
inactive: endpoint: median survival time, dose: 1.5 mg/kg/injection, schedule: Q01DX009 (ip), vehicle: saline with Tween-80 108 % of control | endpoint: median survival time, dose: 3.0 mg/kg/injection, schedule: Q01DX009 (ip), vehicle: saline with Tween-80 101 % of control | endpoint: median survival time, dose: 6.0 mg/kg/injection, schedule: Q01DX009 (ip), vehicle: saline with Tween-80 102 % of control and 104 % of control | endpoint: median survival time, dose: 12.0 mg/kg/injection, schedule: Q01DX009 (ip), vehicle: saline with Tween-80 113 % of control and 109 % of control | endpoint: median survival time, dose: 24.0 mg/kg/injection, schedule: Q01DX009 (ip), vehicle: saline with Tween-80 106 % of control | endpoint: median survival time, dose: 48.0 mg/kg/injection, schedule: Q01DX009 (ip), vehicle: saline with Tween-80 100 % of control

Nc1cc2c(nnn2C(c2ccccc2)c2ccccc2)c(N)n1
inactive: endpoint: mean survival time, dose: 100.0 mg/kg/injection, schedule: Q01DX001 (ip), vehicle: carboxymethylcellulose (CMC) 98 % of control | endpoint: mean survival time, dose: 200.0 mg/kg/injection, schedule: Q01DX001 (ip), vehicle: carboxymethylcellulose (CMC) 92 % of control | endpoint: mean survival time, dose: 400.0 mg/kg/injection, schedule: Q01DX001 (ip), vehicle: carboxymethylcellulose (CMC) 95 % of control

C[NH-].C[NH-].[Br][Pt+2][Br]
inactive: endpoint: mean survival time, dose: 1.25 mg/kg/injection, schedule: Q04DX003 (ip), vehicle: water 106 % of control | endpoint: mean survival time, dose: 2.5 mg/kg/injection, schedule: Q04DX003 (ip), vehicle: water 108 % of control | endpoint: mean survival time, dose: 5.0 mg/kg/injection, schedule: Q04DX003 (ip), vehicle: water 110 % of control | endpoint: mean survival time, dose: 10.0 mg/kg/injection, schedule: Q04DX003 (ip), vehicle: water 97 % of control

CC1(C2CCN(Cc3ccccc3)CC2)OCCO1
inactive: [13] 101 % of control | [14] 97 % of control

C=C(C)CCNc1ncnc2nc[nH]c12
inactive: [9] 97 % of control | [10] 101 % of control | [12] 95 % of control

COc1ccc2c(c1)CCC1C(=O)NN=C21 (stereo unspecified)
inactive: [1] 103 % of control | [2] 103 % of control | [3] 103 % of control

Cc1ccc(C(=O)[O][Hg][CH2]C2COC([CH2][Hg][O]C(=O)c3ccc(C)cc3)CO2)cc1 (stereo unspecified)
inactive: endpoint: mean survival time, dose: 3.12 mg/kg/injection, schedule: Q01DX009 (ip), vehicle: Klucel (hydroxypropylcellulose) (HPC) 100 % of control and 106 % of control | endpoint: mean survival time, dose: 6.25 mg/kg/injection, schedule: Q01DX009 (ip), vehicle: Klucel (hydroxypropylcellulose) (HPC) 101 % of control and 105 % of control | endpoint: mean survival time, dose: 12.5 mg/kg/injection, schedule: Q01DX009 (ip), vehicle: Klucel (hydroxypropylcellulose) (HPC) 98 % of control and 108 % of control | endpoint: mean survival time, dose: 25.0 mg/kg/injection, schedule: Q01DX009 (ip), vehicle: Klucel (hydroxypropylcellulose) (HPC) 98 % of control and 108 % of control | endpoint: mean survival time, dose: 50.0 mg/kg/injection, schedule: Q01DX009 (ip), vehicle: Klucel (hydroxypropylcellulose) (HPC) 104 % of control

O=C1c2ccccc2C(=O)c2c(O)c(S(=O)(=O)O)cc(O)c21
inactive: endpoint: mean survival time, dose: 100.0 mg/kg/injection, schedule: Q04DX003 (ip), vehicle: saline 93 % of control | [16] 96 % of control

O=C1C2(c3ccccc3)CCC1(c1ccccc1)C(c1ccccc1)=C2c1ccccc1
inactive: endpoint: mean survival time, dose: 25.0 mg/kg/injection, schedule: Q01DX001 (ip), vehicle: saline with Tween-80 94 % of control | endpoint: mean survival time, dose: 50.0 mg/kg/injection, schedule: Q01DX001 (ip), vehicle: saline with Tween-80 87 % of control | [6] 90 % of control

CC([NH-])CC[NH-].O=S(=O)(O)O.[Pt+2] (stereo unspecified)
active: endpoint: mean survival time, dose: 6.25 mg/kg/injection, schedule: Q04DX003 (ip), vehicle: saline 158 % of control

C(=C\c1ccc2ccccc2n1)/c1ccc2c(c1)OCO2
inactive: [4] 96 % of control | [9] 102 % of control | [5] 96 % of control | [10] 102 % of control | [11] 95 % of control | [12] 101 % of control

CC1CCC(NC(=O)NCCCl)CC1 (stereo unspecified)
inactive: [6] 98 % of control | [7] 109 % of control | [8] 101 % of control

COc1cc2c3c(c1OC)C1(C=CC(=O)C=C1)CC3N(C(C)=O)CC2 (stereo unspecified)
inactive: [9] 97 % of control | [10] 95 % of control | [12] 94 % of control
